Entries after “also recorded” stand apart in the source; their conditions may differ.
Experiments:
Assay type in all cases: cell-based
[1] = test system: single-cycle HIV-1(Env) pseudotyped with HIV-1 gp160; assay: PCR quantification of viral DNA after single-cycle HIV-1 infection; conditions: CEM-SS T cells, 48 hours post infection
Method: (§1) Briefly, CEM-SS T cells were pre-treated with DMSO or CK548 for 1 hour, and then infected with HIV-1NL4-3. Viral replication was measured by p24 release (see FIG. 5A). Drug cytotoxicity was meaured in CK548-treated and infected cells by PI staining and flow cytometry (see FIG. 5B). Shown is the percentage of PI-positive cells. […] Cells were infected for 2 hours, washed, and cultured in the presence of the drug for 48 hours. Total cellular DNA was extracted at 48 hours post infection and then PCR-amplified to quantify viral DNA (for results see FIG. 5C). Viral 2-LTR-circles were also measured (see FIG. 5D). The relative ratio of 2-LTR circles to viral total DNA was also plotted.
(§2) The nuclear migration assay was performed in two CEM-SS-based cells, shArp-12 and shArp-13, which we recently constructed. In both shArp-12 and shArp-13, the actin branching factor Arp3 was stably knockdown (80% knockdown). […] We will re-measure the nuclear entry defect by BLNMA. […] We will also perform BLNMA to confirm the phenotype.

[2] = test system: single-cycle HIV-1(Env) pseudotyped with HIV-1 gp160; assay: Viral nuclear migration, 2-LTR circles measured after single-cycle HIV-1 infection; conditions: CEM-SS T cells, 48 hours post infection
Method: as §1, §2

CEM-SS T cells = assay: Drug cytotoxicity by PI staining and flow cytometry; conditions: CK548-treated and infected CEM-SS T cells; at 50 μM and below
Method: as §1

HIV-1NL4-3 = assay: HIV-1 replication measured by p24 release in CEM-SS T cells; conditions: CEM-SS T cells pre-treated 1 hour, infected with HIV-1NL4-3
Method: as §1

## O=C1CSC(c2cccc(Br)c2)N1c1cc(Cl)ccc1O (stereo not shown) [CK548]
[1]
  HIV DNA synthesis (viral total DNA by PCR): stimulating HIV DNA synthesis
[2]
  HIV nuclear migration (2-LTR circles): inhibits HIV-1 infection and viral nuclear migration; also recorded: dramatically inhibited HIV nuclear migration
CEM-SS T cells
  Drug cytotoxicity (percentage of PI-positive cells): No drug cytotoxicity was detectable
HIV-1NL4-3
  HIV-1 infection (viral replication by p24 release): inhibits HIV-1 infection

From patent US10793864B2, “Methods and compositions for assessing viral nuclear localization” (GEORGE MASON UNIVERSITY, priority 2015, dated 2020)
